The record followed here is publication PMC12143591, “Unlocking the serine mischarging paradox and inhibiting lactyltransferase activity of AlaRS by a single-point mutation” (Nucleic Acids Research, 2025).

Assay in all cases: PPi release assay (pyrophosphatase, BIOMOL Green, […] nm)
Type in all cases: biochemical

The target of test [1] is T1, AlaRS (AlaRS^WT) (Methylomonas sp. DH-1, UniProt Z9JP01Z3Z1, V207A/L222M, form not given).
T1 construct: full-length, pET-28b(+) (BamHI/NotI), Ni-NTA purified from E. coli Rosetta-gami2(DE3)pLysS; tag removal not mentioned
Particulars: 8 uM tRNA-Ala, 200 uM ATP, 40 mM MgCl2, 1 mM DTT, pH 7.5, 37 °C; read-out: Alanine / K m.

For test [2], the target named is T2, AlaRS (AlaRS^WT) (Methylomonas sp. DH-1, UniProt Z9JP01Z3Z1, L219M, form not given).
T2 construct: full-length, pET-28b(+) (BamHI/NotI), Ni-NTA purified from E. coli Rosetta-gami2(DE3)pLysS; tag removal not mentioned
Particulars: 8 uM tRNA-Ala, 200 uM ATP, 40 mM MgCl2, 1 mM DTT, pH 7.5, 37 °C.

The target of test [3] is T3, AlaRS (AlaRS^WT) (Methylomonas sp. DH-1, UniProt Z9JP01Z3Z1, L219A, form not given).
T3 construct: full-length, pET-28b(+) (BamHI/NotI), Ni-NTA purified from E. coli Rosetta-gami2(DE3)pLysS; tag removal not mentioned
Particulars: 8 uM tRNA-Ala, 200 uM ATP, 40 mM MgCl2, 1 mM DTT, pH 7.5, 37 °C; read-out: Alanine / K m.

Another test concerns the target T4, AlaRS429 (Methylomonas sp. DH-1, UniProt Z9JP01Z3Z1, L219M, form not given).
T4 construct: residues 1-429 (aminoacylation domain, no editing domain), non-cleavable C-terminal His6 tag, synthetic gene in pET28b(+), E. coli BL21(DE3)
Particulars: 8 uM tRNA-Ala, 200 uM ATP, 40 mM MgCl2, 1 mM DTT, pH 7.5, 37 °C; read-out: Alanine / K m.

Test [4] deals with T5, AlaRS (AlaRS^WT) (Methylomonas sp. DH-1, UniProt Z9JP01Z3Z1, L219F, form not given).
T5 construct: full-length, pET-28b(+) (BamHI/NotI), Ni-NTA purified from E. coli Rosetta-gami2(DE3)pLysS; tag removal not mentioned
Particulars: 8 uM tRNA-Ala, 200 uM ATP, 40 mM MgCl2, 1 mM DTT, pH 7.5, 37 °C; read-out: Alanine / K m.

Structures are written as SMILES. Like-named read-outs stand apart in the source and are kept apart here.

For `C[C@H](N)C(=O)O` [Ala], the Km came out at 145 ± 39 µM at AlaRS (AlaRS^WT) [1]; 9 ± 1 µM on AlaRS (AlaRS^WT) [2] (read-out: Alanine / K m); 9 ± 6 µM on AlaRS (AlaRS^WT) [3]; 3 ± 1 µM at AlaRS429; 7 ± 3 µM at AlaRS (AlaRS^WT) [4].
On to `NCC(=O)O` [Gly], for which, on AlaRS (AlaRS^WT) [2] (read-out: Glycine / K m), the Km was determined as 7910 ± 3280 µM.
